This note sets out measurements from PubChem BioAssay AID1919007 (Molecular Pharmacology Branch, DTP, NCI, 2023).

By viability, T/C is commonly meant the result in the treated group divided by that in the control group, in per cent. By pIC50 is commonly meant −log10 of the IC50, conventionally taken in molar units.

Each structure is given as a SMILES string. pIC50: −log10 of the molar value. Values joined by “and” are separate entries in the source; they are usually repeats but may differ in a detail not shown here. Equal entries are not always repeated.

For the test, the system named is A498 complex spheroids with HUVEC/MSC, growth. The experiment in a line: Anticancer human tumor A498 cell line growth inhibition [AhR].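 On all read-outs here: seven day exposure starting three days after spheroid seeding.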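 On viability, T/C: luminescence signal used as a surrogate for viable cells; luminescence viability scaled so 100% equals DMSO vehicle wells.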 The settings on record: for viability, T/C: stronger effect = lower value; for pIC50: curve of compound. From the text: Multicellular complex tumor spheroid response to aryl hydrocarbon receptor antagonists in combination with a variety of drugs and investigational agents in selected tumor cell lines
The current study was undertaken to assess response to aryl hydrocarbon receptor antagonists in combination with standard-of-care drugs and investigational agents in solid tumor complex spheroid models. Complex spheroids include a stromal component modeled by human endothelial cells (HUVEC) and fibroblasts modeled by human mesenchymal stem cells (MSCs). The concentration ranges selected for each drug and investigational agent were based upon clinically achievable concentrations if the clinical Cmax of the agent was known.
Compounds. The drugs and investigational agents: BAY 2416964 (NSC825713), GNF351 (NSC835774), CH-223191 (NSC835775), CPI-455 (NSC825282), aza-TdCyd (NSC777586), decitabine (NSC127716), belinostat (NSC758774), entinostat (NSC756642), pevonedistat (NSC761192), tazemetostat (NSC777109), talazoparib (NSC765396), olaparib (NSC753686), selinexor (NSC780203), nedisertib (M3814, NSC802822), bortezomib (NSC756655), venetoclax (NSC766270), doxorubicin (NSC123127), elimusertib (BAY189344, NSC800525), ceralasertib (AZD6738, NSC777638), TAK-243 (NSC785004), alisertib (NSC759677), etoposide (NSC141540), topotecan (NSC609699), eribulin (NSC707389), gemcitabine (NSC613327), carboplatin (NSC241240), cisplatin (NSC119875), and SN-38 (NSC673596) were obtained from the National Cancer Institute (NCI) Developmental Therapeutics Program Chemical Repository (32). The FDA-approved anticancer drug set is available from the Developmental Therapeutics Program at https://dtp.cancer.gov/organization/dscb/obtaining/available plates.htm. […] The stock solutions were prepared in dimethyl sulfoxide (DMSO, Sigma-Aldrich, St. Louis, MO, cat. D2650), except for the platinum compounds which were prepared in saline (Quality Biological, Gaithersburg, MD, cat. 114-055-101), at 800-fold the tested concentration and stored at -70 degrees C prior to their use. All drugs and investigational agents were tested over a range starting from a high concentration at or near the clinical Cmax and decreasing in half-log increments. If the clinical Cmax for an agent had not been determined, the highest concentration tested was 10 microM (Table 1).
Cell Culture. All cells were maintained in an incubator at 37 degrees C and 5% CO2 with 95% humidity. The PDC lines were cultured according to standard operating procedures established by the NCI PDMR (https://pdmr.cancer.gov). Briefly, all PDCs were thawed and cultured in Matrigel-coated flasks prepared with a working solution of 1X Ham's F-12 nutrient mix, without supplementation (Invitrogen, Waltham, MA, cat. 11765054), 100 U/mL penicillin-streptomycin (Invitrogen, cat. 15140122), and 2.5% Matrigel (Corning Inc., Corning, NY, cat. 354248) for the first three passages. All PDCs were cultured in complete DMEM/F-12 media containing advanced DMEM/F-12 (Invitrogen, cat. 12634028), 4.9% defined fetal bovine serum, heat inactivated (HyClone Laboratories Inc., Logan, UT, cat. SH30070.03HI), 389 ng/mL hydrocortisone (Sigma-Aldrich, cat. H4001), 9.7 ng/mL human EGF recombinant protein (Invitrogen, cat. PHG0313), 23.4 microg/mL adenine (Sigma-Aldrich, cat. A2786), 97.3 U/mL penicillin-streptomycin (Invitrogen, cat. 15140122), 1.9 mM L-glutamine (Invitrogen, cat. 25030081), and 9.7 microM Y-27632 dihydrochloride (Tocris Bioscience, Bristol, United Kingdom, cat. 1254). The PDCs were cultured in complete DMEM/F12 media without 10 microM Y-27632 dihydrochloride for at least two passages prior to the screen. The established cell lines NCI-H1341 and […] were cultured in DMEM/F-12, HEPES (Invitrogen, cat. 11330032), 5% defined fetal bovine serum (HyClone Laboratories Inc., cat. SH30070.03), ITS premix universal culture supplement [insulin (5 microg/mL), transferrin (5 microg/mL), and selenious acid (5 ng/mL)] […]

On to `Cn1ncnc1C1c2n[nH]c(=O)c3cc(F)cc(c23)NC1c1ccc(F)cc1` (stereo not drawn), for which the pIC50 was less than 7.00. For the same molecule, the viability, T/C (compound 0.000316 µM) is 105% and 97.2% and 110%. Under “compound 0.001 µM”, the viability, T/C was 117% and 105% and 114%. Besides, the viability, T/C (compound 0.00316 µM) is 109% and 102% and 103%. Where the note is “compound 0.01 µM”, the viability, T/C was 108% and 101% and 100%. Besides, under “compound 0.0316 µM”, the viability, T/C was 112% and 106% and 103%. The viability, T/C (compound 0.1 µM) was 107% and 98.3% and 85.8%.
In the case of `NS(=O)(=O)OCC1CC(n2ccc3c(NC4CCc5ccccc54)ncnc32)CC1O` (stereo not drawn), the negative logarithm of the IC50 (pIC50) is 6.32 and 6.38 and 6.62. Moreover, the viability, T/C (compound 0.0316 µM) was 96.3% and 93.7% and 99.8%. The viability, T/C (compound 0.1 µM) is 93.4% and 87.1% and 85.3%. Further, the viability, T/C (compound 0.316 µM) is 56.3% and 53.1% and 37.4%. Further, the viability, T/C (compound 1 µM) was 34.4% and 34.5% and 28.6%. For the same molecule, the viability, T/C (compound 3.16 µM) is 23.7% and 26.2% and 21.3%. Also, the viability, T/C (compound 10 µM) is 16.6% and 20% and 16.1%.
On to `Nc1ccccc1NC(=O)c1ccc(CNC(=O)OCc2cccnc2)cc1`, for which the negative logarithm of the IC50 (pIC50) is 5.84 and 5.76 and 5.96. Besides, the viability, T/C (compound 0.0316 µM) was 83.7% and 98.2% and 88.8%. Besides, the viability, T/C (compound 0.1 µM) was 83.4% and 95.8% and 93.6%. For the same molecule, the viability, T/C (compound 0.316 µM) is 88.2% and 84.4% and 77.7%. Also, the viability, T/C (compound 1 µM) is 61.2% and 70.2% and 50.5%. The viability, T/C (compound 3.16 µM) is 21.5% and 29.6% and 23.1%. Besides, the viability, T/C (compound 10 µM) was 2.22% and 2% and 2.21%.
Regarding `Nc1ccn(C2OC(CO)C(O)C2(F)F)c(=O)n1` (stereo not drawn), the pIC50 is greater than 7.50. Further, under “compound 0.0316 µM”, the viability, T/C is 30.9% and 36.6% and 26.1%. Also, the viability, T/C (compound 0.1 µM) is 35.4% and 37.9% and 25.6%. In addition, the viability, T/C (compound 0.316 µM) is 50.1% and 45.6% and 30.7%. Further, under “compound 1 µM”, the viability, T/C is 43% and 49.6% and 32.6%. Besides, under “compound 3.16 µM”, the viability, T/C is 40.7% and 51.3% and 33%. Further, the viability, T/C (compound 10 µM) was 42.1% (2×) and 29.6%.
Take `Nc1ncn(C2CC(O)C(CO)O2)c(=O)n1` (stereo not drawn): the pIC50 is less than 6.00. Moreover, the viability, T/C (compound 0.00316 µM) is 95.4% and 108% and 105%. For the same molecule, under “compound 0.01 µM”, the viability, T/C was 101% and 108% and 107%. The viability, T/C (compound 0.0316 µM) was 94% and 91.7% and 104%. The viability, T/C (compound 0.1 µM) is 87.1% and 96.7% and 97.3%. In addition, for the setting “compound 0.316 µM”, the viability, T/C is 97.1% and 81.1% and 97.3%. For the same molecule, the viability, T/C (compound 1 µM) was 72.5% and 71.4% and 83.5%.
As for `Nc1ncn(C2CC(O)C(CO)S2)c(=O)n1` (stereo not drawn), the pIC50 was less than 6.52. The viability, T/C (compound 0.000949 µM) was 100% and 102% and 109%. In addition, under “compound 0.003 µM”, the viability, T/C was 99.7% and 106% and 114%. Moreover, the viability, T/C (compound 0.00949 µM) was 94.9% and 101% and 108%. For the same molecule, where the note is “compound 0.03 µM”, the viability, T/C was 97.8% and 105% and 96%. Further, the viability, T/C (compound 0.0949 µM) was 79.2% and 95.2% and 85%. Also, where the note is “compound 0.3 µM”, the viability, T/C is 81% and 89.7% and 68.3%.
As for `O=C(C=Cc1cccc(S(=O)(=O)Nc2ccccc2)c1)NO`, the pIC50 was 5.73 and 5.51 and 5.93. Besides, under “compound 0.0316 µM”, the viability, T/C was 96.9% and 99.7% and 91.8%. Where the note is “compound 0.1 µM”, the viability, T/C is 97.1% and 90.4% and 87.2%. For the same molecule, for the setting “compound 0.316 µM”, the viability, T/C was 77.8% and 90.1% and 67.2%. In addition, the viability, T/C (compound 1 µM) was 56.2% and 65.4% and 52.6%. Besides, the viability, T/C (compound 3.16 µM) is 45.1% and 51.9% and 33.4%. For the same molecule, the viability, T/C (compound 10 µM) was 16.7% and 20.2% and 6.75%.
For `O=C(C=Cn1cnc(-c2cc(C(F)(F)F)cc(C(F)(F)F)c2)n1)NNc1cnccn1`, the pIC50 is 7.00 and 6.95 and 7.14. Moreover, the viability, T/C (compound 0.00949 µM) is 99.2% and 101% and 90.7%. For the same molecule, under “compound 0.03 µM”, the viability, T/C is 94.7% and 85.9% and 72.4%. The viability, T/C (compound 0.0949 µM) was 49.8% and 49% and 42.5%. For the setting “compound 0.3 µM”, the viability, T/C is 34.6% and 34.1% and 25.4%. Besides, the viability, T/C (compound 0.949 µM) is 26.4% and 25% and 20.6%. Where the note is “compound 3 µM”, the viability, T/C was 23.9% and 17% and 14.4%.
As for `O=C(c1cc(Cc2n[nH]c(=O)c3ccccc23)ccc1F)N1CCN(C(=O)C2CC2)CC1`, the pIC50 was less than 5.00. Further, the viability, T/C (compound 0.0316 µM) is 100% and 101% (2×). Further, the viability, T/C (compound 0.1 µM) was 103% and 100% and 104%. Also, the viability, T/C (compound 0.316 µM) was 99.4% and 99.2% and 99.5%. For the same molecule, the viability, T/C (compound 1 µM) is 108% and 99.4% and 100%. Moreover, the viability, T/C (compound 3.16 µM) was 106% and 98.4% and 101%. For the same molecule, the viability, T/C (compound 10 µM) is 94% and 92.4% and 92.1%.
